Data on three molecules can be found in patent US8536167B2, “Methods for treating ophthalmic, otic, or nasal infections” (Alcon Research, Ltd., priority 2009, dated 2013).

Converted amounts (≈) assume the structure as drawn. Like-named read-outs stand apart in the source and are kept apart here.

A short description of data set [1]: Ocular pharmacokinetic study following topical administration. In kind it is in vivo, New Zealand white rabbits. The procedure: FIGS. 3 and 4 present the results of ocular pharmacokinetic studies following topical administration of finafloxacin and ciprofloxacin compositions. The studies utilized New Zealand white rabbits, and 45 μl of 0.3% test composition was instilled bilaterally.

The subject of another data set is Streptococcus pneumonia. In words: In vitro antimicrobial susceptibility test (MIC50). In kind it is cell-based. The note with it: Streptococcus pneumoniae, N = 10. The procedure:
(§1) A finafloxacin composition at pH 5.8 was compared to ciprofloxacin (pH 5.8) and ofloxacin (pH 5.8 and pH 7) compositions using standard in vitro antimicrobial susceptibility tests (M07-08 Methods for Dilution Antimicrobial Susceptibility Tests for Bacteria that Grow Aerobically; Approved Standard-Eighth Edition (January 2009, Clinical and Laboratory Standards Institute), herein incorporated by reference). Minimum inhibitory concentrations (MIC50) were determined using Gram-positive and Gram-negative test organisms commonly found in otic and ophthalmic infections. The MIC50 was the lowest concentration of antibiotic that prevented growth of the test organism, as determined visually by a lack of turbidity.
(§2) The results of the experiment are presented below in TABLE 1 (Gram-positive organisms) and TABLE 2 (Gram-negative organisms).

Data set [2] relates to Staphylococcus aureus - Ciprofloxacin resistant. In words: In vitro antimicrobial susceptibility test (MIC50). The data set is classed as cell-based. How it is done: as §1, §2
The subject of data set [3] is Staphylococcus epidermidis - Ciprofloxacin sensitive. In words: In vitro antimicrobial susceptibility test (MIC50). The data set is classed as cell-based. How it is done: as §1, §2
For data set [4], the system named is Staphylococcus epidermidis - Ciprofloxacin resistant. The experiment in a line: In vitro antimicrobial susceptibility test (MIC50). The data set is classed as cell-based. The procedure: as §1, §2
A further data set relates to Pseudomonas otitidis. In words: In vitro antimicrobial susceptibility test (MIC50). The note with it: Metapseudomonas otitidis, N = 10. The data set is classed as cell-based. The procedure:
as §1, §2

In another data set the test system is Haemophilia influenzae. In words: In vitro antimicrobial susceptibility test (MIC50). The data set is classed as cell-based. As to conditions: N = 10. The procedure: as §1, §2
For the next data set, the system named is Enterococcus faecalis. The experiment in a line: In vitro antimicrobial susceptibility test (MIC50). The data set is classed as cell-based. The procedure:
as §1, §2

Data set [5] relates to Pseudomonas aeruginosa - Ciprofloxacin resistant. In words: In vitro antimicrobial susceptibility test (MIC50). The data set is classed as cell-based. The procedure:
as §1, §2

The test system of data set [6] is Staphylococcus aureus - Ciprofloxacin sensitive. In words: In vitro antimicrobial susceptibility test (MIC50). In kind it is cell-based. The procedure:
as §1, §2

The next data set deals with Proteus mirabilis. In words: In vitro antimicrobial susceptibility test (MIC50). In kind it is cell-based. How it is done:
as §1, §2

In the next data set the test system is Escherichia coli. In words: In vitro antimicrobial susceptibility test (MIC50). In kind it is cell-based. How it is done: as §1, §2
For data set [7], the system named is Pseudomonas aeruginosa - Ciprofloxacin sensitive. In words: In vitro antimicrobial susceptibility test (MIC50). In kind it is cell-based. The procedure: as §1, §2
In data set [8] the test system is Pseudomonas aeruginosa. In words: Rabbit keratitis model (similar test). In kind it is in vivo, New Zealand white rabbits. The note with it: finafloxacin compositions compared to CILOXAN.
The nature of data set [9]: In vivo ototoxicity study, outer ear irritation. The note with it: 0.3% pH 5.7, 0.3%, 0.6%, 1.0% pH 7.5 (0.3% Mg and BAC), 0.2 mL bid for 7 days followed by 7 day observations. Further details: species or system Rabbit. The text has this:
TABLE 3 below presents the results of toxicity testing performed in two animals models (chinchilla and rabbit).

The test system of data set [10] is Pseudomonas aeruginosa. The experiment in a line: Guinea pig model of acute otitis externa (AOE). The data set is classed as in vivo. The note with it: for eradication of Pseudomonas: 0.3% composition. How it is done: Guinea pig ears were slightly abraded and 200 μl of bacterial culture (10^8 CFU) of P. aeruginosa were instilled into each ear. Ears were lavaged with saline and plated onto Pseudomonas isolation media. FIGS. 1a-1d summarize the results of these studies. […] Lower concentration finafloxacin compositions (0.03% and 0.003%) still achieved very substantial 5-6 log reductions of Pseudomonas in the model. […] Using a lower concentration composition (0.03%, shown in FIG. 1c) finafloxacin achieved a 4 log CFU reduction in the single dose study.

Data set [11] can be described thus: Ex vivo corneal perfusion model. The data set is classed as in vitro ADME. As to conditions: 0.1 mM test solutions at pH 7.3, ex vivo, FIG. 2. How it is done:
FIG. 2 presents comparative corneal perfusion data for several quinolone antimicrobials (including finafloxacin) using an ex vivo model. 0.1 mM test solutions at pH 7.3 of four quinolone antimicrobials were compared in the model.

Setting [12] is: at pH 5.8, N = 10, read-out: MIC50.

As to `O=C(O)c1cn(C2CC2)c2cc(N3CCNCC3)c(F)cc2c1=O` [Ciprofloxacin], the “corneal stroma tissue concentration” value in data set [1] (45 μl of 0.3% test composition instilled bilaterally, topical, FIG. 3) is on record as “greater concentrations immediately following instillation”. Moreover, the “aqueous humor tissue concentration” value in [1] (45 μl of 0.3% test composition instilled bilaterally, topical, FIG. 4) is “greater concentrations immediately following instillation”. Also, the MIC50 was determined as 1 µg/mL (≈ 3.02 µM) in the data set with Streptococcus pneumonia (at pH 5.8); 128 µg/mL (≈ 386 µM) in [2] (at pH 5.8, N = 12); 0.5 µg/mL (≈ 1.51 µM) in data set [3] (at pH 5.8, N = 8); 128 µg/mL (≈ 386 µM) in [4] (at pH 5.8, N = 12); 0.25 µg/mL (≈ 0.754 µM) against Pseudomonas otitidis (at pH 5.8); 0.016 µg/mL (≈ 0.0483 µM) against Haemophilia influenzae (at pH 5.8). Further, the MIC50 against Enterococcus faecalis (at pH 5.8, N = 10) is 128 µg/mL (≈ 386 µM); in [5] (at pH 5.8, N = 11), 64 µg/mL (≈ 193 µM); in data set [6] (at pH 5.8, N = 8), 1 µg/mL (≈ 3.02 µM); in the data set with Proteus mirabilis (setting [12]), 0.125 µg/mL (≈ 0.377 µM); with Escherichia coli (at pH 5.8, N = 10), 256 µg/mL (≈ 773 µM); in data set [7] (at pH 5.8, N = 14), 1 µg/mL (≈ 3.02 µM).
As to `N#Cc1c(N2C[C@@H]3NCCO[C@H]3C2)c(F)cc2c(=O)c(C(=O)O)cn(C3CC3)c12` [Finafloxacin, 8-cyano-1-cyclopropyl-6-fluoro-7-[(4aS,7aS)-hexahydropyrrolo[3,4-b]-1,4-oxazin-6(2H)-yl]-1,4-dihydro-4-oxo-3-quinolinecarboxylic acid], the “aqueous humor tissue concentration” value in data set [1] (rabbit, in vivo) was “comparable at later time points”. Besides, the “corneal stroma tissue concentration” value in [1] (rabbit, in vivo) was “comparable at later time points”. In the data set on Pseudomonas aeruginosa [8], the “Pseudomonas CFU reductions” value was “inferior Pseudomonas CFU reductions compared to CILOXAN®”. Also, the outer ear irritation result in data set [9] is “No indications”; in [9] (listed as finafloxacin), “did not demonstrate inner or outer ear irritation”. Further, the “log reductions of Pseudomonas” value with Pseudomonas aeruginosa [10] (0.003% composition, two doses, FIG. 1a) was 5-6 log; in the data set on Pseudomonas aeruginosa [10] (0.03% composition, two doses, FIG. 1a), 5-6 log. Also, in the data set on Pseudomonas aeruginosa [10] (0.03% and 0.3% compositions with BAC compared to self-preserved compositions, FIG. 1d), the “effect of preservative (BAC) on efficacy against Pseudomonas” value is given as “does not affect the efficacy”. In addition, the CFU reduction in the data set on Pseudomonas aeruginosa [10] (0.03% composition, single dose study, FIG. 1c) came out at 4 log CFU. In the data set on Pseudomonas aeruginosa [10] (0.03%, single dose study, FIG. 1c), the “performance compared to ciprofloxacin and ofloxacin compositions” value is “performed as well as the ciprofloxacin composition and better than the ofloxacin composition”. Moreover, the “eradication of Pseudomonas” value is recorded as “almost complete eradication of Pseudomonas” in the data set with Pseudomonas aeruginosa [10] (single dose study, FIG. 1b) and “almost complete eradication of Pseudomonas” in the data set with Pseudomonas aeruginosa [10] (two separate doses, FIG. 1a). In addition, the “performance compared to ciprofloxacin” value with Pseudomonas aeruginosa [10] (tests summarized in FIG. 1a, two doses) is “performed as well as ciprofloxacin”. Besides, the corneal perfusion entry in data set [11] was “better corneal perfusion properties than the ciprofloxacin test composition and demonstrates less perfusion relative to the ofloxacin test composition”. The MIC50 is 0.25 µg/mL (≈ 0.628 µM) in the data set on Streptococcus pneumonia (at pH 5.8); 4 µg/mL (≈ 10 µM) in data set [2] (at pH 5.8, N = 12); 0.016 µg/mL (≈ 0.0402 µM) in data set [3] (at pH 5.8, N = 8); 2 µg/mL (≈ 5.02 µM) in data set [4] (at pH 5.8, N = 12); 0.125 µg/mL (≈ 0.314 µM) against Pseudomonas otitidis (at pH 5.8); 0.008 µg/mL (≈ 0.0201 µM) against Haemophilia influenzae (at pH 5.8). Also, the MIC50 was 8 µg/mL (≈ 20.1 µM) in the data set with Enterococcus faecalis (at pH 5.8, N = 10); 16 µg/mL (≈ 40.2 µM) in [5] (at pH 5.8, N = 11); 0.016 µg/mL (≈ 0.0402 µM) in data set [6] (at pH 5.8, N = 8); 0.25 µg/mL (≈ 0.628 µM) with Proteus mirabilis (setting [12]); 4 µg/mL (≈ 10 µM) with Escherichia coli (at pH 5.8, N = 10); 1 µg/mL (≈ 2.51 µM) in [7] (at pH 5.8, N = 14).
With `CC1COc2c(N3CCN(C)CC3)c(F)cc3c(=O)c(C(=O)O)cn1c23` (stereo not shown) [Ofloxacin], the MIC50 against Streptococcus pneumonia (at pH 5.8) came to 2 µg/mL (≈ 5.53 µM); with Streptococcus pneumonia (at pH 7), 1 µg/mL (≈ 2.77 µM); in data set [2] (at pH 5.8, N = 12), 64 µg/mL (≈ 177 µM); in data set [2] (at pH 7, N = 12), 32 µg/mL (≈ 88.6 µM); in [3] (at pH 5.8, N = 8) it was 1 µg/mL (≈ 2.77 µM); in data set [3] (at pH 7, N = 8) it was 0.25 µg/mL (≈ 0.692 µM). For the same molecule, the MIC50 in [4] (at pH 5.8, N = 12) came to 32 µg/mL (≈ 88.6 µM); in data set [4] (at pH 7, N = 12) it was 16 µg/mL (≈ 44.3 µM); with Pseudomonas otitidis (at pH 5.8), 1 µg/mL (≈ 2.77 µM); in the data set on Pseudomonas otitidis (at pH 7), 0.25 µg/mL (≈ 0.692 µM); against Haemophilia influenzae (at pH 5.8) it was 0.031 µg/mL (≈ 0.0858 µM); against Haemophilia influenzae (at pH 7), 0.031 µg/mL (≈ 0.0858 µM). The MIC50 against Enterococcus faecalis (at pH 5.8, N = 10) was found to be 16 µg/mL (≈ 44.3 µM); against Enterococcus faecalis (at pH 7, N = 10), 128 µg/mL (≈ 354 µM); in data set [5] (at pH 5.8, N = 11), 256 µg/mL (≈ 708 µM); in [5] (at pH 7, N = 11), 64 µg/mL (≈ 177 µM); in [6] (at pH 5.8, N = 8), 1 µg/mL (≈ 2.77 µM); in data set [6] (at pH 7, N = 8) it was 0.25 µg/mL (≈ 0.692 µM). Besides, the MIC50 with Proteus mirabilis (setting [12]) worked out at 0.5 µg/mL (≈ 1.38 µM); in the data set with Proteus mirabilis (pH 7), 0.125 µg/mL (≈ 0.346 µM); against Escherichia coli (at pH 5.8, N = 10), 512 µg/mL (≈ 1420 µM); in the data set on Escherichia coli (at pH 7, N = 10), 16 µg/mL (≈ 44.3 µM); in data set [7] (at pH 5.8, N = 14), 4 µg/mL (≈ 11.1 µM); in data set [7] (at pH 7, N = 14) it was 2 µg/mL (≈ 5.53 µM).
